Laboratory results: patent publication US20090093538A1, “Method for treating cancer” (priority 2007, published 2009)

Key:
[1] = system: HSB2 cells; experiment: Apoptosis, Annexin V / propidium iodide FACS; format: cell-based
Experimental: To confirm that the ability of NAC to block Compound 1-induced cell death was not cell-line specific, we examined the role of oxidative stress in two additional cell lines by FAC analysis. RAMOS and HSB2 cells (ATCC) were seeded in 6-well plates at 1×10^6 cells/well/4 mL and incubated at 37° C. for 4 hours. […] After incubation the cells were stained with Annexin V and propidium iodide (Vybrant Apoptosis assay kit, Cat# V13241, Invitrogen, Molecular Probes) for measuring apoptotic cells by FACS analysis.
The cells were harvested and stained with Annexin V and propidium iodide for measuring apoptotic cells by FACS analysis.

[2] = system: Hsp70; experiment: Hsp70 induction in tumor and non-tumor cells (Western blot); format: cell-based, human; details: 0.5 μM, 15 hours; MDA-MB-435 vs HMEC and HRE cells
Experimental: MDA-MB-435, human mammary epithelial (HMEC) […] (see Ross et al., “Systematic variation in gene expression patterns in human cancer cell lines,” Nat. Genet. (2000). 24(3):227-3.), and human renal epithelial (HRE) cells were seeded in 100 mm tissue culture plates at 1.5×10^6 cells/plate and incubated at 37° C. with 5% CO2 for several hours. […] After treatment the cells were lysized and used for Western blot analysis.
Samples were run on a SDS-PAGE gel and proteins were transferred onto a nitrocellulose membrane. Nitrocellulose was blocked with 5% skim milk in TBS with 0.5% Tween at room temperature for 1 hour and then probed with anti-Hsp70 (mouse IgG, sc-24, Santa Cruz) antibody. The nitrocellulose was then probed with secondary antibodies, HRP-conjugated goat anti-rabbit IgG and HRP-conjugated horse anti-mouse IgG (#7074, #7076, Cell Signaling). LumiGLO reagent, 20× Peroxide (#7003, Cell Signaling) was used to visualize gel (see FIG. 25).

[3] = Compound 1 0.2 μM plus NAC 5 mM, 20 hours
[4] = Compound 1 0.2 μM, 20 hours (FIG. 39D)

CN(NC(=O)CC(=O)NN(C)C(=S)c1ccccc1)C(=S)c1ccccc1 [Compound 1]
early apoptotic cells ([1]; 200 nM Compound 1, 24 hours (DMSO 12%)): 45%
cells in early stages of apoptosis [1, 3]: 2.9%
cells in late stages of apoptosis [1, 3]: 3.8%
early apoptotic cells ([1]; Compound 1 0.2 μM plus NAC 5 mM, 24 hours): 6%
cells in early stages of apoptosis [1, 4]: 26.6%
cells in late stage apoptosis [1, 4]: 41.5%
induction of Hsp70 [2]: preferentially induces Hsp70 in MDA-MB-435 tumor cells compared to non-tumor HMEC, and HRE cells
